The NIST ThermoML archive (doi:10.1016/j.jct.2016.10.009)
Numbers after ± are expanded uncertainties.

Assay: xn = mol fraction of the nth substance listed
Settings: Liquid, Vibrating tube method

CC(C)OC(C)C [diisopropyl ether] + CCC(C)O
mass density [kg/m3]
Settings	x2 = 0	x2 = 0.2036	x2 = 0.3227	x2 = 0.4464	x2 = 0.4973	x2 = 0.6595	x2 = 0.8482
293.15 K, 110000 kPa	–	–	–	–	–	–	854.1 ± 1
293.15 K, 120000 kPa	808.7 ± 1.2	818.9 ± 1.1	825.2 ± 1.1	832.1 ± 1.1	835.1 ± 1.1	845.2 ± 1	858.2 ± 1
293.15 K, 130000 kPa	813.2 ± 1.2	823.4 ± 1.2	829.6 ± 1.1	836.4 ± 1.1	839.3 ± 1.1	849.3 ± 1.1	862.1 ± 1
293.15 K, 140000 kPa	817.6 ± 1.2	827.6 ± 1.2	833.7 ± 1.2	840.4 ± 1.1	843.3 ± 1.1	853.2 ± 1.1	865.8 ± 1
298.15 K, 100 kPa	718.3 ± 0.7	732.9 ± 0.7	741.7 ± 0.7	751.2 ± 0.7	755.4 ± 0.7	769.4 ± 0.7	787.5 ± 0.7
298.15 K, 1000 kPa	719.6 ± 0.7	734 ± 0.7	742.8 ± 0.7	752.2 ± 0.7	756.4 ± 0.7	770.3 ± 0.7	788.3 ± 0.7
298.15 K, 5000 kPa	724.5 ± 0.7	738.6 ± 0.7	747.1 ± 0.7	756.3 ± 0.7	760.5 ± 0.7	774.1 ± 0.7	791.7 ± 0.7
298.15 K, 10000 kPa	730.2 ± 0.7	743.9 ± 0.7	752.2 ± 0.7	761.2 ± 0.7	765.2 ± 0.7	778.5 ± 0.7	795.7 ± 0.7
298.15 K, 15000 kPa	735.6 ± 0.8	748.8 ± 0.8	757 ± 0.8	765.8 ± 0.8	769.7 ± 0.7	782.8 ± 0.7	799.6 ± 0.7
298.15 K, 20000 kPa	740.5 ± 0.8	753.5 ± 0.8	761.5 ± 0.8	770.1 ± 0.8	773.9 ± 0.8	786.7 ± 0.8	803.2 ± 0.8
298.15 K, 25000 kPa	745.2 ± 0.8	757.9 ± 0.8	765.7 ± 0.8	774.2 ± 0.8	777.9 ± 0.8	790.5 ± 0.8	806.6 ± 0.8
298.15 K, 30000 kPa	749.6 ± 0.8	762.1 ± 0.8	769.8 ± 0.8	778.1 ± 0.8	781.8 ± 0.8	794.1 ± 0.8	810 ± 0.8
298.15 K, 35000 kPa	753.7 ± 0.8	766 ± 0.8	773.6 ± 0.8	781.7 ± 0.8	785.4 ± 0.8	797.5 ± 0.8	813.1 ± 0.8
298.15 K, 40000 kPa	757.8 ± 0.9	769.8 ± 0.8	777.3 ± 0.8	785.3 ± 0.8	788.9 ± 0.8	800.8 ± 0.8	816.2 ± 0.8
298.15 K, 45000 kPa	761.6 ± 0.9	773.4 ± 0.9	780.8 ± 0.9	788.7 ± 0.8	792.2 ± 0.8	804.1 ± 0.8	819.2 ± 0.8
298.15 K, 50000 kPa	765.2 ± 0.9	776.9 ± 0.9	784.2 ± 0.9	792 ± 0.9	795.5 ± 0.9	807.1 ± 0.8	822.1 ± 0.8
298.15 K, 55000 kPa	768.8 ± 0.9	780.3 ± 0.9	787.5 ± 0.9	795.2 ± 0.9	798.6 ± 0.9	810.1 ± 0.9	824.9 ± 0.8
298.15 K, 60000 kPa	772.2 ± 0.9	783.5 ± 0.9	790.6 ± 0.9	798.2 ± 0.9	801.6 ± 0.9	812.9 ± 0.9	827.6 ± 0.9
298.15 K, 65000 kPa	775.4 ± 1	786.6 ± 0.9	793.7 ± 0.9	801.2 ± 0.9	804.5 ± 0.9	815.7 ± 0.9	830.2 ± 0.9
298.15 K, 70000 kPa	778.6 ± 1	789.7 ± 1	796.6 ± 0.9	804.1 ± 0.9	807.4 ± 0.9	818.5 ± 0.9	832.8 ± 0.9
298.15 K, 80000 kPa	784.6 ± 1	795.5 ± 1	802.3 ± 1	809.6 ± 1	812.8 ± 1	–	–
